Tests used:
[1] = physchem
Procedure: (§1) Calibration was carried out using unbranched alkan-2-ones (having from 3 to 16 carbon atoms) with known log P values (the log P values were determined by the retention times using linear interpolation between two successive alkanones).

[2] = for log P [a]: acidic range, pH 2.7, 0.1% aqueous formic acid/acetonitrile; for log P [a][d]: pH 2.7, major isomer; for log P [a][e]: pH 2.7, minor isomer
Procedure: as §1

[3] = system: Phytophthora infestans; assay type: in vivo; conditions: tomato plants, protective, active compound concentration 500 ppm, evaluation 7 days after inoculation
[4] = pH 2.7, log P [a], acidic range, pH 2.7, 0.1% aqueous formic acid/acetonitrile

## Cc1cc(C(F)(F)F)nn1CC(=O)N1CCC(c2nc(C(=O)/C=C/c3c(F)cccc3F)cs2)CC1 [Compound I-12, (2E)-3-(2,6-Difluorophenyl)-1-[2-(1-{[5-methyl-3-(trifluoromethyl)-1H-pyrazol-1-yl]acetyl}piperidin-4-yl)-1,3-thiazol-4-yl]prop-2-en-1-one]
[1]; [4]
  chromatographic logP: 3.83

## Cc1cc(C(F)(F)F)nn1CC(=O)N1CCC(c2nc(C#CC(=O)c3ccco3)cs2)CC1 [Compound I-10]
[2]
  log P [a]: 2.92^[a]

## O=C(CC1CCCCC1)c1csc(C2CCNCC2)n1 [II-1, 4-[4-(Cyclohexylacetyl)-1,3-thiazol-2-yl]piperidinium chloride]
[1]; pH 2.7
  chromatographic logP: 1.35

## Cc1cc(C(F)(F)F)nn1CC(=O)N1CCC(c2nc(C#CC(=O)c3ccccc3)cs2)CC1 [Compound I-1]
[2]
  log P [a]: 3.58^[a]

## Cc1cc(C(F)(F)F)nn1CC(=O)N1CCC(c2nc(C(=O)Cc3ccccc3Br)cs2)CC1 [Compound I-13]
[2]
  log P [a]: 3.67^[a];

## Cc1ccc(C)c(NC(=O)N2CCC(c3nc(/C=C/C(=O)c4c(F)cccc4F)cs3)CC2)c1 [Compound I-23]
[3]
  efficacy: 70%
[2]
  log P [a]: 3.56^[a]

## CO/N=C(/Cc1cccc(C)c1C)c1csc(C2CCN(C(=O)Cn3nc(C(F)F)cc3C(F)F)CC2)n1 [Compound I-61]
[3]
  efficacy: 95%
[2]
  log P [a]: 4.33^[a]

## COc1cccc(OC)c1C(=O)/C=C/c1csc(C2CCN(C(=O)Cn3nc(C(F)F)cc3C(F)F)CC2)n1 [Compound I-39]
[3]
  efficacy: 90%
[2]
  log P [a]: 3.04^[a]

## CC(C)(C)OC(=O)N1CCC(c2nc(C(O)CCc3ccccc3)cs2)CC1 (centres unmarked) [XVI-1, tert-Butyl 4-[4-(1-hydroxy-3-phenylpropyl)-1,3-thiazol-2-yl]piperidine-1-carboxylate]
[1]; pH 2.7
  chromatographic logP: 3.79

## C#Cc1csc(C2CCN(C(=O)OC(C)(C)C)CC2)n1 [VI-1, tert-Butyl 4-(4-ethynyl-1,3-thiazol-2-yl)piperidine-1-carboxylate]
[1]; pH 2.7
  chromatographic logP: 3.1

## Cc1cccc(C)c1C(=O)/C=C/c1csc(C2CCN(C(=O)Cn3nc(C(F)F)cc3C(F)F)CC2)n1 [Compound I-63]
[2]
  log P [a]: 3.65^[a];

## CCOc1ccccc1C(=O)CCc1csc(C2CCN(C(=O)Cn3nc(C(F)(F)F)cc3C)CC2)n1 [Compound I-20, 1-(2-Ethoxyphenyl)-3-[2-(1-{[5-methyl-3-(trifluoromethyl)-1H-pyrazol-1-yl]acetyl}piperidin-4-yl)-1,3-thiazol-4-yl]propan-1-one]
[1]; [4]
  chromatographic logP: 3.7
[1]; pH 7.8
  chromatographic logP: 3.68

## Cc1cccc(C(=O)/C=C/c2csc(C3CCN(C(=O)Cn4nc(C(F)F)cc4C(F)F)CC3)n2)c1 [Compound I-38]
[3]
  efficacy: 95%
[2]
  log P [a]: 3.64^[a];

## O=C(/C=C/c1csc(C2CCN(C(=O)Cn3nc(C(F)F)cc3C(F)F)CC2)n1)c1ccccc1 [Compound I-37]
[3]
  efficacy: 95%
[2]
  log P [a]: 3.31^[a];

## CCOc1ccccc1C(=O)C#Cc1csc(C2CCN(C(=O)Cn3nc(C(F)(F)F)cc3C)CC2)n1 [Compound I-11, 1-(2-Ethoxyphenyl)-3-[2-(1-{[5-methyl-3-(trifluoromethyl)-1H-pyrazol-1-yl]acetyl}piperidin-4-yl)-1,3-thiazol-4-yl]prop-2-yn-1-one]
[1]; pH 2.7
  chromatographic logP: 3.78
[1]; [4]
  chromatographic logP: 3.76

## Cc1cc(C(F)(F)F)nn1CC(=O)N1CCC(c2nc(C(=O)Cc3ccccc3)cs2)CC1 [Compound I-16]
[3]
  efficacy: 80%
[2]
  log P [a]: 3.36^[a]

## COc1ccccc1C(=O)C#Cc1csc(C2CCN(C(=O)Cn3nc(C(F)(F)F)cc3C)CC2)n1 [Compound I-2]
[2]
  log P [a]: 3.35^[a];

## Cc1cccc(CC(=O)c2csc(C3CCN(C(=O)Cn4nc(C(F)F)cc4C(F)F)CC3)n2)c1C [Compound I-59]
[2]
  log P [a]: 3.71^[a]

## COc1ccc(C(=O)/C=C/c2csc(C3CCN(C(=O)Cn4nc(C(F)F)cc4C(F)F)CC3)n2)c(F)c1 [Compound I-48]
[3]
  efficacy: 94%
[2]
  log P [a]: 3.45^[a]

## Cc1cc(C(F)(F)F)nn1CC(=O)N1CCC(c2nc(CCC(=O)c3ccccc3Cl)cs2)CC1 [Compound I-21]
[2]
  log P [a]: 3.6^[a];

## Cc1cc(C(F)(F)F)nn1CC(=O)N1CCC(c2nc(C#CC(=O)C3CCCCC3)cs2)CC1 [Compound I-4]
[2]
  log P [a]: 4.15^[a]

## O=C(/C=C/c1csc(C2CCN(C(=O)Cn3nc(C(F)F)cc3C(F)F)CC2)n1)c1cccc(F)c1 [Compound I-41]
[3]
  efficacy: 95%
[2]
  log P [a]: 3.48^[a]

## Cc1cc(C(F)(F)F)nn1CC(=O)N1CCC(c2nc(C#CC(=O)c3cccs3)cs2)CC1 [Compound I-9]
[2]
  log P [a]: 3.29^[a]

## Cc1cc(C(F)(F)F)nn1CC(=O)N1CCC(c2nc(C#CC(=O)c3cccc4ccccc34)cs2)CC1 [Compound I-3]
[2]
  log P [a]: 4.25^[a]

## Cc1cc(C(F)(F)F)nn1CC(=O)N1CCC(c2nc(C#CC(=O)c3ccccc3Cl)cs2)CC1 [Compound I-5]
[2]
  log P [a]: 3.79^[a]

## Cc1cc(C(F)(F)F)nn1CC(=O)N1CCC(c2nc(C(Cl)=CC(=O)c3ccccc3)cs2)CC1 (mixture of isomers) [Compound I-26]
[2]
  log P [a]: 4^[a]

## CC(C)(C)C(=O)/C=C/c1csc(C2CCN(C(=O)Cn3nc(C(F)F)cc3C(F)F)CC2)n1 [Compound I-47]
[3]
  efficacy: 94%
[2]
  log P [a]: 3.45^[a]

## CON(C)C(=O)c1csc(C2CCN(C(=O)OC(C)(C)C)CC2)n1 [Compound V-1, tert-Butyl 4-{4-[methoxy(methyl)carbamoyl]-1,3-thiazol-2-yl}piperidine-1-carboxylate]
[1]; pH 2.7
  chromatographic logP: 2.4

## O=C(/C=C/c1c(F)cccc1F)c1csc(C2CCN(C(=O)Cn3nc(C(F)F)cc3C(F)F)CC2)n1 [Compound I-62]
[2]
  log P [a]: 3.68^[a];

## Cc1cc(C(F)(F)F)nn1CC(=O)N1CCC(c2nc(C(=O)Cc3cccc4ccccc34)cs2)CC1 [Compound I-18]
[2]
  log P [a]: 3.87^[a]

## Cc1cc(C(F)(F)F)nn1CC(=O)N1CCC(c2nc(C#CC(=O)c3ccc(Cl)cc3Cl)cs2)CC1 [Compound I-6]
[2]
  log P [a]: 4.31^[a]

## Cc1cc(C(F)(F)F)nn1CC(=O)N1CCC(c2nc(C(=O)CC3CCCCC3)cs2)CC1 [Compound I-17]
[2]
  log P [a]: 4.13^[a];

## COc1ccccc1C(=O)C=C(Cl)c1csc(C2CCN(C(=O)Cn3nc(C(F)(F)F)cc3C)CC2)n1 (mixture of isomers) [Compound I-65]
[3]
  efficacy: 93%
[2]
  log P [a][d]: 3.96^[a][d];
  log P [a][e]: 3.79^[a][e]

## COc1ccc(C(=O)C#Cc2csc(C3CCN(C(=O)Cn4nc(C(F)(F)F)cc4C)CC3)n2)cc1 [Compound I-7]
[2]
  log P [a]: 3.54^[a]

## Cc1cc(C(F)(F)F)nn1CC(=O)N1CCC(c2nc(C#CC(=O)C(C)(C)C)cs2)CC1 [Compound I-8]
[2]
  log P [a]: 3.68^[a]

## COc1ccccc1C(=O)CCc1csc(C2CCN(C(=O)Cn3nc(C(F)(F)F)cc3C)CC2)n1 [Compound I-19]
[2]
  log P [a]: 3.34^[a]

## C#CCOc1ccccc1C(C=Cc1csc(C2CCN(C(=O)Cn3nc(C(F)F)cc3C(F)F)CC2)n1)=NO (mixture of isomers) [Compound I-64]
[2]
  log P [a][d]: 3.08^[a][d];
  log P [a][e]: 3.30^[a][e]

## O=C(/C=C/c1csc(C2CCN(C(=O)Cn3nc(C(F)F)cc3C(F)F)CC2)n1)c1ccc(F)cc1 [Compound I-40]
[2]
  log P [a]: 3.43^[a]

## Cc1cc(C(F)(F)F)nn1CC(=O)N1CCC(c2nc(C(=O)CC(C)(C)c3ccccc3)cs2)CC1 [Compound I-15]
[2]
  log P [a]: 4.08^[a]

Reference: patent US9357779B2 (priority 2010, dated 2016)
